Reference: BigSolDB 2.1

NC(N)=C([N+](=O)[O-])[N+](=O)[O-]
solubility (mole fraction)
Conditions	293.15 K	298.15 K	303.15 K	308.15 K	313.15 K	318.15 K	323.15 K	328.15 K	333.15 K
in 2-butanone	0.00503	0.0056	0.00613	0.00659	0.00714	0.00782	0.00837	0.00899	0.00957
in DMSO	0.172	0.177	0.181	0.184	0.189	0.193	0.197	0.201	0.206
in MIBK	0.00278	0.00327	0.00358	0.00402	0.00428	0.00467	0.00512	0.00553	0.006
in cyclopentanone	0.00715	0.00767	0.0083	0.0089	0.00948	0.0103	0.011	0.0119	0.0128
